Where a SMILES comes first, the peptide text is derived from it. [ ]: non-standard residue; d: D form. pT = C[C@@H](OP(=O)(O)O)[C@H](N)C(=O)O; pS = N[C@@H](COP(=O)(O)O)C(=O)O
Columns and labels:
14-3-3η [1] = molecular target: T1, 14-3-3η (Homo sapiens, UniProt Q04917); experiment: direct binding FP assay, 14-3-3η; conditions: FITC-labeled peptide; FP buffer pH 7.4; 60 min room temperature; mean ± S.D., n = 3; values for 14-16 are estimated (Fig. S4); read-out: KD toward 14-3-3η (FP assay)
T1 construct: N-terminally His6-tagged 14-3-3 full-length proteins were expressed with heterologous bacterial expression; made in house
T1 sequence (Q04917 1-246): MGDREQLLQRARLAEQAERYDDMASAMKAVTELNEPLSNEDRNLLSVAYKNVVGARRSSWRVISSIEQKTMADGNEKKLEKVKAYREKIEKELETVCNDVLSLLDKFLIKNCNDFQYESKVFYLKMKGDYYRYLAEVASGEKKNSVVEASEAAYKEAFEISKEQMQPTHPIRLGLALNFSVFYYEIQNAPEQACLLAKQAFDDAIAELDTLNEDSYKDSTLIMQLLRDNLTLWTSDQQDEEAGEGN
Experimental: For the FP assay, the 14-3-3 proteins were diluted to a protein-specific start concentration in FP buffer (10 mM HEPES, pH 7.4, 150 mM NaCl, 2 mM DTT, 0.01% Tween 20). DMSO stocks of peptides were diluted in FP buffer to a concentration of 30 nM. For the assay, 10 μl of FP buffer were pipetted in 20 wells of a 384-well Corning black round bottom plate. A dilution series with 10 μl of protein solution was performed, and 5 μl of peptide solution was added to each well for a final volume of 15 μl. The plate was incubated for 60 min at room temperature. Measurement was performed at 25 °C in a Tecan Spark20M plate reader (λex = 470 nm, λem = 525 nm). Data analysis was performed with GraphPad Prism (version 5.03), and KD values were determined via a nonlinear regression fit of dose-response curves with variable slope (four parameters).

14-3-3η [2] = molecular target: T1, 14-3-3η; experiment: isothermal titration calorimetry (ITC) with 14-3-3η; assay type: binding
Experimental: The ITC experiments were performed on an automated MicroCal iTC200 (Malvern Panalytical). To prepare 14-3-3 proteins for ITC measurements, a buffer exchange to ITC buffer (50 mM HEPES, pH 7.4, 250 mM NaCl, 20 mM MgCl2) was performed on a Superdex 75 10/300 GL column (ÄKTA Pure FPLC system, GE Healthcare). For peptides 1, 7, and 17, a 500 μM solution of protein was titrated to a 50 μM solution of peptide in 18 steps (2-μl volume in 4 s, 180-s spacing) at 25 °C. For peptide 11, a 250 μM solution of protein was titrated to a 12.5 μM solution of peptide with the settings mentioned before. The reference power was set to […], and the stirring speed was set to 750 rpm. Analysis was performed using MicroCal ITC-ORIGIN analysis software.

Compound	Kd (14-3-3η [1]) [µM]	other results
CC(C)C[C@H](NC(=O)[C@@H](NC(=O)[C@@H](NC(=O)[C@H](C)NC(=O)[C@H](CO)NC(=O)[C@H](C)NC(=O)[C@@H]1CCCN1C(=O)[C@H](CC(N)=O)NC(=O)[C@@H](NC(=O)[C@@H](NC(=O)[C@H](C)NC(=O)[C@H](CO)NC(=O)[C@H](C)NC(=O)[C@H](CO)NC(=O)[C@@H]1CCCN1C(=O)[C@@H](NC(=O)[C@@H](NC(=O)[C@H](CO)NC(=O)[C@H](C)NC(=O)[C@@H](NC(=O)[C@@H]1CCCN1C(=O)[C@H](CO)NC(=O)[C@H](COP(=O)(O)O)NC(=O)[C@H](CC(N)=O)NC(=O)[C@H](C)NC(=O)[C@H](CC(N)=O)NC(=O)[C@H](CCCCN)NC(=O)[C@H](CC(N)=O)NC(=O)[C@H](CCCCN)NC(=O)[C@@H](N)CCC(=O)O)C(C)C)[C@@H](C)O)[C@@H](C)O)[C@@H](C)O)[C@@H](C)OP(=O)(O)O)[C@@H](C)O)[C@@H](C)O)C(=O)N[C@@H](CC(=O)O)C(=O)N[C@@H](CCC(N)=O)C(=O)N[C@@H](CO)C(=O)N[C@@H](CCCCN)C(=O)N[C@@H](C)C(=O)N[C@@H](Cc1c[nH]c2ccccc12)C(=O)N[C@@H](CC(N)=O)C(=O)N[C@@H](CCCNC(=N)N)C(=O)O [compound 9] (H-EKNKNAN[pS]SPVASTTPSASAT[pT]NPASATTLDQSKAWNR-OH)	15 ± 1.5	
17: APN 36–73 pThr^63 peptide [compound 17]		ITC result with 14-3-3η (in words) (14-3-3η [2]; 500 μM protein titrated to 50 μM peptide, 25 °C, Fig. S8): no heat change could be observed
CC(C)C[C@H](NC(=O)[C@@H](NC(=O)[C@@H](NC(=O)[C@H](C)NC(=O)[C@H](CO)NC(=O)[C@H](C)NC(=O)[C@@H]1CCCN1C(=O)[C@H](CC(N)=O)NC(=O)[C@@H](NC(=O)[C@@H](NC(=O)[C@H](C)NC(=O)[C@H](CO)NC(=O)[C@H](C)NC(=O)[C@H](CO)NC(=O)[C@@H]1CCCN1C(=O)[C@@H](NC(=O)[C@@H](NC(=O)[C@H](CO)NC(=O)[C@H](C)NC(=O)[C@@H](NC(=O)[C@@H]1CCCN1C(=O)[C@H](CO)NC(=O)[C@H](COP(=O)(O)O)NC(=O)[C@H](CC(N)=O)NC(=O)[C@H](C)NC(=O)[C@H](CC(N)=O)NC(=O)[C@H](CCCCN)NC(=O)[C@H](CC(N)=O)NC(=O)[C@H](CCCCN)NC(=O)[C@@H](N)CCC(=O)O)C(C)C)[C@@H](C)O)[C@@H](C)O)[C@@H](C)O)[C@@H](C)O)[C@@H](C)O)[C@@H](C)OP(=O)(O)O)C(=O)N[C@@H](CC(=O)O)C(=O)N[C@@H](CCC(N)=O)C(=O)N[C@@H](CO)C(=O)N[C@@H](CCCCN)C(=O)N[C@@H](C)C(=O)N[C@@H](Cc1c[nH]c2ccccc12)C(=O)N[C@@H](CC(N)=O)C(=O)N[C@@H](CCCNC(=N)N)C(=O)O [compound 12] (H-EKNKNAN[pS]SPVASTTPSASATTNPASAT[pT]LDQSKAWNR-OH)	0.18 ± 0.01	
CC(C)C[C@H](NC(=O)[C@@H](NC(=O)[C@@H](NC(=O)[C@H](C)NC(=O)[C@H](COP(=O)(O)O)NC(=O)[C@H](C)NC(=O)[C@@H]1CCCN1C(=O)[C@H](CC(N)=O)NC(=O)[C@@H](NC(=O)[C@@H](NC(=O)[C@H](C)NC(=O)[C@H](CO)NC(=O)[C@H](C)NC(=O)[C@H](CO)NC(=O)[C@@H]1CCCN1C(=O)[C@@H](NC(=O)[C@@H](NC(=O)[C@H](CO)NC(=O)[C@H](C)NC(=O)[C@@H](NC(=O)[C@@H]1CCCN1C(=O)[C@H](CO)NC(=O)[C@H](COP(=O)(O)O)NC(=O)[C@H](CC(N)=O)NC(=O)[C@H](C)NC(=O)[C@H](CC(N)=O)NC(=O)[C@H](CCCCN)NC(=O)[C@H](CC(N)=O)NC(=O)[C@H](CCCCN)NC(=O)[C@@H](N)CCC(=O)O)C(C)C)[C@@H](C)O)[C@@H](C)O)[C@@H](C)O)[C@@H](C)O)[C@@H](C)O)[C@@H](C)O)C(=O)N[C@@H](CC(=O)O)C(=O)N[C@@H](CCC(N)=O)C(=O)N[C@@H](CO)C(=O)N[C@@H](CCCCN)C(=O)N[C@@H](C)C(=O)N[C@@H](Cc1c[nH]c2ccccc12)C(=O)N[C@@H](CC(N)=O)C(=O)N[C@@H](CCCNC(=N)N)C(=O)O [compound 10] (H-EKNKNAN[pS]SPVASTTPSASATTNPA[pS]ATTLDQSKAWNR-OH)	0.42 ± 0.03	
CC(=O)N[C@@H](CCC(=O)O)C(=O)N[C@@H](CCCCN)C(=O)N[C@@H](CC(N)=O)C(=O)N[C@@H](CCCCN)C(=O)N[C@@H](CC(N)=O)C(=O)N[C@@H](C)C(=O)N[C@@H](CC(N)=O)C(=O)N[C@@H](COP(=O)(O)O)C(=O)N[C@@H](CO)C(=O)N1CCC[C@H]1C(=O)N[C@H](C(=O)N[C@@H](C)C(=O)N[C@@H](CO)C(=O)N[C@H](C(=O)N[C@H](C(=O)N1CCC[C@H]1C(=O)N[C@@H](CO)C(=O)N[C@@H](C)C(=O)N[C@@H](CO)C(=O)N[C@@H](C)C(=O)N[C@H](C(=O)N[C@H](C(=O)N[C@@H](CC(N)=O)C(=O)N1CCC[C@H]1C(=O)N[C@@H](C)C(=O)N[C@@H](CO)C(=O)N[C@@H](C)C(=O)N[C@H](C(=O)N[C@H](C(=O)N[C@@H](CC(C)C)C(=O)N[C@@H](CC(=O)O)C(=O)N[C@@H](CCC(N)=O)C(=O)N[C@@H](CO)C(=O)N[C@@H](CCCCN)C(=O)N[C@@H](C)C(=O)N[C@@H](Cc1c[nH]c2ccccc12)C(=O)N[C@@H](CC(N)=O)C(=O)N[C@@H](CCCNC(=N)N)C(=O)O)[C@@H](C)O)[C@@H](C)O)[C@@H](C)O)[C@@H](C)O)[C@@H](C)O)[C@@H](C)O)C(C)C [compound 7] (Ac-EKNKNAN[pS]SPVASTTPSASATTNPASATTLDQSKAWNR-OH)		binding stoichiometry N (ITC, 14-3-3η) (14-3-3η [2]; T = 298 K, peptide per 14-3-3 protomer, mean ± S.D., n = 3): 1.13 ± 0.18
CC(C)C[C@H](NC(=O)[C@@H](NC(=O)[C@@H](NC(=O)[C@H](C)NC(=O)[C@H](CO)NC(=O)[C@H](C)NC(=O)[C@@H]1CCCN1C(=O)[C@H](CC(N)=O)NC(=O)[C@@H](NC(=O)[C@@H](NC(=O)[C@H](C)NC(=O)[C@H](CO)NC(=O)[C@H](C)NC(=O)[C@H](CO)NC(=O)[C@@H]1CCCN1C(=O)[C@@H](NC(=O)[C@@H](NC(=O)[C@H](CO)NC(=O)[C@H](C)NC(=O)[C@@H](NC(=O)[C@@H]1CCCN1C(=O)[C@H](CO)NC(=O)[C@H](COP(=O)(O)O)NC(=O)[C@H](CC(N)=O)NC(=O)[C@H](C)NC(=O)[C@H](CC(N)=O)NC(=O)[C@H](CCCCN)NC(=O)[C@H](CC(N)=O)NC(=O)[C@H](CCCCN)NC(=O)[C@@H](N)CCC(=O)O)C(C)C)[C@@H](C)O)[C@@H](C)O)[C@@H](C)O)[C@@H](C)O)[C@@H](C)O)[C@@H](C)O)C(=O)N[C@@H](CC(=O)O)C(=O)N[C@@H](CCC(N)=O)C(=O)N[C@@H](COP(=O)(O)O)C(=O)N[C@@H](CCCCN)C(=O)N[C@@H](C)C(=O)N[C@@H](Cc1c[nH]c2ccccc12)C(=O)N[C@@H](CC(N)=O)C(=O)N[C@@H](CCCNC(=N)N)C(=O)O [compound 13] (H-EKNKNAN[pS]SPVASTTPSASATTNPASATTLDQ[pS]KAWNR-OH; N-terminus assumed)	> 83	
CC(C)C[C@H](NC(=O)[C@@H](NC(=O)[C@@H](NC(=O)[C@H](C)NC(=O)[C@H](CO)NC(=O)[C@H](C)NC(=O)[C@@H]1CCCN1C(=O)[C@H](CC(N)=O)NC(=O)[C@@H](NC(=O)[C@@H](NC(=O)[C@H](C)NC(=O)[C@H](CO)NC(=O)[C@H](C)NC(=O)[C@H](CO)NC(=O)[C@@H]1CCCN1C(=O)[C@@H](NC(=O)[C@@H](NC(=O)[C@H](CO)NC(=O)[C@H](C)NC(=O)[C@@H](NC(=O)[C@@H]1CCCN1C(=O)[C@H](CO)NC(=O)[C@H](COP(=O)(O)O)NC(=O)[C@H](CC(N)=O)NC(=O)[C@H](C)NC(=O)[C@H](CC(N)=O)NC(=O)[C@H](CCCCN)NC(=O)[C@H](CC(N)=O)NC(=O)[C@H](CCCCN)NC(=O)[C@@H](N)CCC(=O)O)C(C)C)[C@@H](C)O)[C@@H](C)O)[C@@H](C)OP(=O)(O)O)[C@@H](C)O)[C@@H](C)O)[C@@H](C)O)C(=O)N[C@@H](CC(=O)O)C(=O)N[C@@H](CCC(N)=O)C(=O)N[C@@H](CO)C(=O)N[C@@H](CCCCN)C(=O)N[C@@H](C)C(=O)N[C@@H](Cc1c[nH]c2ccccc12)C(=O)N[C@@H](CC(N)=O)C(=O)N[C@@H](CCCNC(=N)N)C(=O)O [compound 8] (H-EKNKNAN[pS]SPVASTTPSASA[pT]TNPASATTLDQSKAWNR-OH)	18 ± 2.1	

Reference: article PMC7939381, “MMP activation–associated aminopeptidase N reveals a bivalent 14-3-3 binding motif” (The Journal of Biological Chemistry, 2021)
